PMC9928118, “Funneling modulatory peptide design with generative models: Discovery and characterization of disruptors of calcineurin protein-protein interactions” (PLOS Computational Biology, 2023)
Blank lines part the entries; values can stand above or below the sequence they belong to.

System: GST-tagged Cn
Assay: PEPperPRINT peptide microarray binding assay with GST-tagged Cn
From the text: We then estimated in-silico the binding strength of the various peptides to Cn by template-based docking followed by flexible backbone refinement using Modeller and PepCrawler (Figs 4 and S4). In parallel, we performed a medium-throughput qualitative binding assay using a PEPperPRINT peptide microarray to evaluate the direct binding of Cn to selected peptides (Figs 4 and S5, S3 Data).
Fig 4 Medium-throughput filtering by structural modeling and microarray screening. (a) Depiction of the structural modeling protocol: after alignment to the known PxIxIT binding site, an efficient flexible backbone structure refinement algorithm is applied to estimate the docking energy. […] (c) Coefficients of the equivalent single-site model fitted by sparse linear regression, shown in weight logo representation. […] Colors indicate physical property (black = hydrophobic, red = negatively charged, etc.). (d) Per-gene distribution of docking scores across natural fragments (lower is better). […] (e) Overview of the microarray screening. Peptides are printed on the chip (two circles per peptide). After pouring of Cn and subsequent washing, fluorescent-tagged, a Cn-targeting antibody is overlaid and an image is taken. Fluorescent spots indicate strong Cn binders. (f) Scatter plot of the sequence likelihood (normalized by length, higher is better) against fluorescence level (higher is better, see Methods for details of the data analysis).
In parallel, selected peptides were tested for Cn binding on a chip microarray (PEPperPRINT). 786 peptides were printed on the chip and were incubated with GST-tagged Cn overnight at 4°C. Following extensive washing, binding was detected by applying a fluorescently labeled (Alexa-Fluor 647) GST antibody. […] The experiment was repeated five times, and Z-normalized fluorescence levels were determined following post-processing of the raw data (Methods, S5A, S5B and S5C Fig).
The peptide array was prepared as a custom array pepper chip (PEPperPRINT). For binding detection, 1mg/ml GST-tagged Cn was incubated overnight on the microarray at 4°C. Following extensive washing, fluorescently labeled (Alexa-Fluor 647) GST-antibody. […] The experiment was repeated five times. Each scan was analyzed as follows: a grid was overlaid using the border HA markers to determine regions of interest (ROI) for each peptide (two ROIs per peptide) and the logarithm of the average fluorescence intensity was computed for each ROI. […] To remove spatial artifacts, a position-dependent baseline fluorescence was fitted using a second-order polynomial, and subtracted to the fluorescence. Fluorescence levels were next averaged over the two ROI for each peptide and Z-normalized. […] The Z-scores were averaged over the five repetitions to yield one fluorescence score per peptide.

[1] = max over the chip locations listed for the peptide (two spots)
[2] = mean over the chip locations listed for the peptide (two spots)
[3] = GST-tagged Cn, max over the spots named in Location on chip
[4] = GST-tagged Cn, mean over the spots named in Location on chip
[5] = GST-tagged Cn, max over the chip spots listed under Location on chip
[6] = GST-tagged Cn, mean over the chip spots listed under Location on chip
[7] = GST-tagged Cn, max over the spots on the chip (two locations)
[8] = GST-tagged Cn, mean over the spots on the chip (two locations)
[9] = max over the spots listed under Location on chip
[10] = mean over the spots listed under Location on chip
[11] = GST-tagged Cn, max over the chip locations
[12] = GST-tagged Cn, mean over the chip locations

Chip Fluorescence (max) [1]: 3.766 | Chip Fluorescence (mean) [2]: 0.1629
Sequence: DTLWIGSGTVTDSGNY [SeqRBM_1220]

Chip Fluorescence (max) [1]: 4.229 | Chip Fluorescence (mean) [2]: 0.4051
Sequence: FLGRGPQLEDFDPSRD [Seqshuffled_9338]

Chip Fluorescence (max) [3]: 1.679 | Chip Fluorescence (mean) [4]: 0.2149
Sequence: TFWTNPQYTITLEEPD [SeqRBMlowT_2235]

Chip Fluorescence (max) [5]: 0.5479 | Chip Fluorescence (mean) [6]: -0.783
Sequence: QTEDQPGIIVHTAMLP [SeqRCN1_Bactrocera_dorsalis]

Chip Fluorescence (max) [7]: 1.011 | Chip Fluorescence (mean) [8]: -0.2929
Sequence: TFWTNPQFVTLVKDGD [SeqRBM_8117]

Chip Fluorescence (max) [1]: 4.952 | Chip Fluorescence (mean) [2]: 0.4575
Sequence: RQPGQALLELKGHAGA [SeqYPL247C_Erysiphe_pulchra]

Chip Fluorescence (max) [7]: 1.098 | Chip Fluorescence (mean) [8]: -0.565
Sequence: AKDDPPKIQVHPPEED [SeqRBMlowT_9786]

Chip Fluorescence (max) [9]: 2.944 | Chip Fluorescence (mean) [10]: 0.8153
Sequence: EDGKVPSIEIDVREYA [SeqRBM_7430]

Chip Fluorescence (max) [3]: 1.671 | Chip Fluorescence (mean) [4]: -0.5381
Sequence: HSKLIPKLSVQSPVHH [SeqRBMlowT_1714]

Chip Fluorescence (max) [5]: 0.9389 | Chip Fluorescence (mean) [6]: 0.02031
Sequence: TFWTNPQYVVSLEEPD [SeqRBMlowT_5673]

Chip Fluorescence (max) [9]: 2.629 | Chip Fluorescence (mean) [10]: -0.3443
Sequence: YFFDRDTGAGKIEQEH [Seqrandom_9991]

Chip Fluorescence (max) [5]: 0.7143 | Chip Fluorescence (mean) [6]: -1.223
Sequence: GAPITPHKQGNEKAVS [SeqRBM_6919]

Chip Fluorescence (max) [3]: 1.433 | Chip Fluorescence (mean) [4]: -0.5855
Sequence: STEIIATLFVQVANEY [Seqshuffled_9888]

Chip Fluorescence (max) [1]: 3.897 | Chip Fluorescence (mean) [2]: 1.75
Sequence: TFWSNPQFDIALDDDD [SeqRBM_1928]

Chip Fluorescence (max) [7]: 0.998 | Chip Fluorescence (mean) [8]: -0.1818
Sequence: SQMAAPAINIDFAPTN [SeqRBMlowT_314]

Chip Fluorescence (max) [9]: 3.266 | Chip Fluorescence (mean) [10]: 0.639
Sequence: TFWMNPQFRITLDDPD [SeqRBMlowT_69]

Chip Fluorescence (max) [7]: 1.045 | Chip Fluorescence (mean) [8]: 0.2093
Sequence: ATDTTPSVVVHVCESD [SeqRCN1_Macaca_mulatta]

Chip Fluorescence (max) [9]: 3.347 | Chip Fluorescence (mean) [10]: 0.3099
Sequence: STSSLPTFSFSSPVSH [SeqRBMlowT_1620]

Chip Fluorescence (max) [9]: 2.739 | Chip Fluorescence (mean) [10]: 1.043
Sequence: GGLRSDSVTMIDQGAY [SeqRBM_2699]

Chip Fluorescence (max) [7]: 1.137 | Chip Fluorescence (mean) [8]: -0.6823
Sequence: TFWTNPQFVVSLEEPD [SeqRBMlowT_8096]

Chip Fluorescence (max) [9]: 3.032 | Chip Fluorescence (mean) [10]: 1.049
Sequence: TFWSNPQYFVTLLESD [SeqRBM_6656]

Chip Fluorescence (max) [3]: 1.462 | Chip Fluorescence (mean) [4]: 1.063
Sequence: KAYMCPYMQFIDGGRK [SeqRBMlowT_9280]

Chip Fluorescence (max) [7]: 1.022 | Chip Fluorescence (mean) [8]: -1.34
Sequence: STSSLPTFSFSTPPPT [SeqRBMlowT_1617]

Chip Fluorescence (max) [5]: 0.887 | Chip Fluorescence (mean) [6]: -0.1564
Sequence: THVEKVRFLIQPAGHP [Seqshuffled_9690]

Chip Fluorescence (max) [9]: 2.726 | Chip Fluorescence (mean) [10]: 0.3874
Sequence: KAYMCPFMSFIDGGQR [SeqRBMlowT_3665]

Chip Fluorescence (max) [7]: 1.1241 | Chip Fluorescence (mean) [8]: -0.7201
Sequence: STSSLPTFSFSSPQPS [SeqRBMlowT_3925]

Chip Fluorescence (max) [7]: 1.236 | Chip Fluorescence (mean) [8]: 0.1676
Sequence: TFWTNPQFKITLEEVD [SeqRBMlowT_4669]

Chip Fluorescence (max) [7]: 1.2864 | Chip Fluorescence (mean) [8]: -7.047
Sequence: TTSTNPQIRITDHEDE [Seqshuffled_9411]

Chip Fluorescence (max) [3]: 1.373 | Chip Fluorescence (mean) [4]: 0.3282
Sequence: TFWSNPQFKIKLEDPD [SeqRBMlowT_7428]

Chip Fluorescence (max) [7]: 1.081 | Chip Fluorescence (mean) [8]: 0.5254
Sequence: TFWTNPQYRITLEDVD [SeqRBMlowT_4237]

Chip Fluorescence (max) [11]: -0.0111 | Chip Fluorescence (mean) [12]: -1.452
Sequence: ASTSTFPQQQTAHKKQ [SeqBOI2_Podospora_anserina]

Chip Fluorescence (max) [1]: 21.0979 | Chip Fluorescence (mean) [2]: 2.702
Sequence: GGPGTPTRQGQHLAPG [SeqRBMlowT_9846]

Chip Fluorescence (max) [5]: 0.9861 | Chip Fluorescence (mean) [6]: 0.123
Sequence: RQPGTFLLTLRGHKKQ [SeqRBMlowT_6149]

Chip Fluorescence (max) [5]: 0.501 | Chip Fluorescence (mean) [6]: -0.7597
Sequence: ASSSAPEIVVSKPEHN [SeqKCNN2_Pan_troglodytes]

Chip Fluorescence (max) [5]: 0.739 | Chip Fluorescence (mean) [6]: -0.5185
Sequence: AFLATPSIIIHPPEGP [SeqRBM_2675]

Chip Fluorescence (max) [11]: -1.1866 | Chip Fluorescence (mean) [12]: -2.157
Sequence: STSSLPTFSFSSPPPT [SeqRBMlowT_3483]

Chip Fluorescence (max) [9]: 2.964 | Chip Fluorescence (mean) [10]: 0.9132
Sequence: KAYINPSMVFIEGGRR [SeqRBM_7863]

Chip Fluorescence (max) [11]: 0.04391 | Chip Fluorescence (mean) [12]: -1.286
Sequence: GQSISRNIRPNTFSPL [Seqshuffled_9432]

Chip Fluorescence (max) [1]: 4.393 | Chip Fluorescence (mean) [2]: 0.02338
Sequence: TFWTNPQFKITLEEED [SeqRBMlowT_217]

Chip Fluorescence (max) [11]: 0.2051 | Chip Fluorescence (mean) [12]: -1.045
Sequence: NWPETPSIVEQPPSSS [SeqRBM_881]

Chip Fluorescence (max) [5]: 0.4327 | Chip Fluorescence (mean) [6]: -0.8945
Sequence: AQMAPPAINIDFAPTN [SeqRBMlowT_7215]

Chip Fluorescence (max) [1]: 11.1628 | Chip Fluorescence (mean) [2]: 2.896
Sequence: KHLDVPDIIITPPTPT [SeqC16orf74_Pan_troglodytes]

Chip Fluorescence (max) [1]: 3.886 | Chip Fluorescence (mean) [2]: 0.4656
Sequence: TFWTNPQFRLKLVDVD [SeqRBMlowT_5534]

Chip Fluorescence (max) [1]: 5.53 | Chip Fluorescence (mean) [2]: 0.9297
Sequence: TFWTNPQYRITLEELD [SeqRBMlowT_2291]

Chip Fluorescence (max) [3]: 1.5542 | Chip Fluorescence (mean) [4]: 0.5719
Sequence: TFWHNPQYVINLEDPD [SeqCAPN11_Anopheles_dirus]

Chip Fluorescence (max) [3]: 1.867 | Chip Fluorescence (mean) [4]: 0.7201
Sequence: DTYGTASLARELPSPK [Seqshuffled_9914]

Chip Fluorescence (max) [11]: 0.2441 | Chip Fluorescence (mean) [12]: -1.026
Sequence: TFWTNPQYRITVTDPD [SeqRBMlowT_65]

Chip Fluorescence (max) [1]: 13.8972 | Chip Fluorescence (mean) [2]: 1.628
Sequence: PGLYDNALGIEQFTLS [SeqRBMlowT_2874]

Chip Fluorescence (max) [3]: 1.359 | Chip Fluorescence (mean) [4]: -0.5299
Sequence: RTYINPFMKFTIWGTQ [SeqRBM_6386]

Chip Fluorescence (max) [5]: 0.7684 | Chip Fluorescence (mean) [6]: -0.05563
Sequence: RAYINPFMQFTDDGRR [SeqRBMlowT_7881]

Chip Fluorescence (max) [5]: 0.9232 | Chip Fluorescence (mean) [6]: -0.444
Sequence: SQAKSPRIEITAYTHV [SeqRBM_8514]

Chip Fluorescence (max) [11]: 0.1343 | Chip Fluorescence (mean) [12]: -0.9005
Sequence: STSSLPTFSFSSPASS [SeqRBMlowT_1605]

Chip Fluorescence (max) [9]: 2.7221 | Chip Fluorescence (mean) [10]: 0.53
Sequence: ERWSIGFGDMFCNQFK [Seqrandom_9989]

Chip Fluorescence (max) [7]: 1.294 | Chip Fluorescence (mean) [8]: 0.4829
Sequence: PAFFCEGFTIQADSLD [Seqshuffled_9825]

Chip Fluorescence (max) [7]: 1.085 | Chip Fluorescence (mean) [8]: -0.04024
Sequence: QLLAVPALSVDRKGPK [SeqCACUL1_Dipodomys_ordii]

Chip Fluorescence (max) [11]: -0.7132 | Chip Fluorescence (mean) [12]: -1.058
Sequence: EPEMSPSIFILKAHTT [SeqRBM_1051]

Chip Fluorescence (max) [11]: -0.7515 | Chip Fluorescence (mean) [12]: -1.165
Sequence: QSRSCSHPNRSPERVT [SeqRBM_5791]

Chip Fluorescence (max) [11]: -0.5504 | Chip Fluorescence (mean) [12]: -1.127
Sequence: PPPGTPTRIGQHMAPS [SeqRBM_7926]
